The assay has as its target T1, CRTH2 (Homo sapiens, UniProt Q9Y5Y4).
T1 sequence (Q9Y5Y4 1-395): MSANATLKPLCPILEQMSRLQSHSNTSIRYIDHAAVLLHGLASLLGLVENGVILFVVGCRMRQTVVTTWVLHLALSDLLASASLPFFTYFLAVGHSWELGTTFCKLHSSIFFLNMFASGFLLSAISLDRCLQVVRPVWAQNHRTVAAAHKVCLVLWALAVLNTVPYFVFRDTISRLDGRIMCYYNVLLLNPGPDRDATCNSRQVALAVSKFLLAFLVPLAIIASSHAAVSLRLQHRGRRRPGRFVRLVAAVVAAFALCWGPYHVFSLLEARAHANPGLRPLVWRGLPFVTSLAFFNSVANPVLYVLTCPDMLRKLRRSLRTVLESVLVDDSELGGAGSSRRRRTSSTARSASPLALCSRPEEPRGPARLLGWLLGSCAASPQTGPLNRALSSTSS
Put plainly: Radioligand binding Scintillation Proximity Assay ([3H]PGD2, hCRTH2-CHO cell membranes). Details: host or cells: CHO cells. Conditions: 1.5 nM [3H]PGD2, hCRTH2-CHO membranes, SPA; read-out: IC50 binding. As to the method: Adherent CHO cells expressing hCRTH2 (Euroscreen, Belgium) were cultured in 225 cm2 cell culture flasks (Corning, USA) in 30 ml of medium. After two rinses of phosphate buffered saline (PBS), cells were harvested in 10 ml of PBS containing 1 mM EDTA, centrifuged at 500×g for 5 min at 4° C. and frozen at −80° C. The pellet was re-suspended in 50 mM Tris-HCl, pH 7.4, 2 mM EDTA, 250 mM Sucrose, containing protease inhibitor cocktail tablets, (Complete EDTA-free, Roche, Germany) and incubated 30 min at 4° C. Cells were disrupted by nitrogen cavitation (Parr Instruments, USA) at 4° C. (800 p.s.i. for 30 min), and centrifuged at 500×g for 10 min at 4° C. Pellet containing nuclei and cellular debris was discarded and supernatant was centrifuged 60 min at 4° C. at 45000×g. Membrane pellet was re-suspended in storage buffer (10 mM HEPES/KOH pH 7.4, 1 mM EDTA, 250 mM sucrose, protease inhibitor cocktail tablets) using Dounce homogenization and frozen in liquid nitrogen, and stored at −80° C.
The inhibitory activity can be investigated by a radioligand binding Scintillation Proximity Assay (SPA) (Sawyer et al., Br. J. Pharmocol 2002, 137, 1163-72). The SPA radioligand binding assay was performed at room temperature in binding buffer (10 mM HEPES/KOH pH 7.4, 10 mM MnC12, with protease inhibitor cocktail tablets), containing 1.5 nM [3H]PGD2 (Perkin Elmer), 10-50 μg/ml of hCRTH2—CHO cell membrane protein and 2 mg/ml of Wheat-germ agglutinin Scintillation Proximity Assay beads (RPNQ0001, GE-Healthcare) in a final volume of 100 μl in 96 well plates (Corning, USA). Non-specific binding was determined in the presence of 10 μM PGD2 (Cayman, USA). Competing Compounds of Formula (I) were diluted in dimethylsulphoxide so that the total volume of dimethylsulfoxide was kept constant at 1% dimethylsulphoxide (Me2SO). Serial dilutions of 100 μM to 100 pM were prepared and 10 μl each of the compounds of Formula (I) stock solutions were added to the binding assay reagents and incubated for 90 min with agitation at room temperature. Binding activity was determined by using a 1450 Micro-beta scintillation counter (Wallac, UK).
In general terms: SPA uses beads or plates that emit light when radiolabelled molecules are held near them.
For orientation: IC50 means the concentration that inhibits the measured activity by half. With `CCN1C(=O)N(Cc2cc(Cl)ccc2F)C(=O)C12C(=O)N(CC(=O)O)c1ccc(Cl)cc12` (single isomer, unassigned; (+)) [Example 3, [(+)-5′-chloro-1-(5-chloro-2-fluorobenzyl)-3-ethyl-2,2′,5-trioxospiro[imidazolidine-4,3′-indol]-1′(2′H)-yl]acetic acid], the half-maximal inhibitory concentration (IC50) was determined as 336 nM.
For the compound `CN1C(=O)N(CCc2ccccc2F)C(=O)C12C(=O)N(CC(=O)O)c1ccc(Cl)cc12` (centres unmarked) [Example 14, [15′-chloro-1-[2-(2-fluorophenyl)ethyl]-3-methyl-2,2′,5-trioxospiro[imidazolidine-4,3′-indol]-1′(2′H)-yl]acetic acid], the IC50 was found to be 940 nM.
In the case of `CC(C)c1nc(CN2C(=O)N(C)C3(C2=O)C(=O)N(CC(=O)O)c2ccc(Cl)cc23)cs1` (centres unmarked) [Example 5, [5′-chloro-1-[(2-isopropyl-1,3-thiazol-4-yl)methyl]-3-methyl-2,2′,5-trioxospiro[imidazolidine-4,3′-indol]-1′(2′H)-yl]acetic acid] it was 628 nM.
In the case of `COc1c(C)cnc(CN2C(=O)N(C)C3(C2=O)C(=O)N(CC(=O)O)c2ccc(Cl)cc23)c1C` (centres unmarked) [Example 9, [5′-chloro-1-[(4-methoxy-3,5-dimethylpyridin-2-yl)methyl]-3-methyl-2,2′,5-trioxospiro[imidazolidine-4,3′-indol]-1′(2′H)-yl]acetic acid] it was 363 nM; in that of `Cc1onc(-c2ccccc2)c1CN1C(=O)N(C)C2(C1=O)C(=O)N(CC(=O)O)c1ccc(Cl)cc12` (centres unmarked) [Example 7, [5′-chloro-3-methyl-1-[(5-methyl-3-phenylisoxazol-4-yl)methyl]-2,2′,5-trioxospiro[imidazolidine-4,3′-indol]-1′(2′H)-yl]acetic acid], 148 nM; in that of `CN1C(=O)N(CCc2cccc(F)c2)C(=O)C12C(=O)N(CC(=O)O)c1ccc(Cl)cc12` (centres unmarked) [Example 13, [15′-chloro-1-[2-(3-fluorophenyl)ethyl]-3-methyl-2,2′,5-trioxospiro[imidazolidine-4,3′-indol]-1′(2′H)-yl]acetic acid], 916 nM.
In the case of `CN1C(=O)N(CCc2cccc(Cl)c2)C(=O)C12C(=O)N(CC(=O)O)c1ccc(Cl)cc12` (centres unmarked) [Example 15, [15′-chloro-1-[2-(3-chlorophenyl)ethyl]-3-methyl-2,2′,5-trioxospiro[imidazolidine-4,3′-indol]-1′(2′H)-yl]acetic acid] it was 551 nM; in that of `CN1C(=O)N(CCc2ccccc2Cl)C(=O)C12C(=O)N(CC(=O)O)c1ccc(Cl)cc12` (centres unmarked) [Example 12, [5′-chloro-1-[2-(2-chlorophenyl)ethyl]-3-methyl-2,2′,5-trioxospiro[imidazolidine-4,3′-indol]-1′(2′H)-yl]acetic acid], 740 nM.
As to `CN1C(=O)N(Cc2csc(-c3ccccc3)n2)C(=O)C12C(=O)N(CC(=O)O)c1ccc(Cl)cc12` (centres unmarked) [Example 8, [5′-chloro-3-methyl-2,2′,5-trioxo-1-[(2-phenyl-1,3-thiazol-4-yl)methyl] Spiro[imidazolidine-4,3′-indol]-1′(2′H)-yl]acetic acid], the concentration for half-maximal inhibition (IC50) was found to be 44 nM.
In the case of `CN1C(=O)N(Cc2nc3ccccc3s2)C(=O)C12C(=O)N(CC(=O)O)c1ccc(Cl)cc12` (centres unmarked) [Example 11, [1-(1,3-benzothiazol-2-ylmethyl)-5′-chloro-3-methyl-2,2′,5-trioxospiro[imidazolidine-4,3′-indol]-1′(2′H)-yl]acetic acid] it was 945 nM; in that of `CCCN1C(=O)N(Cc2cc(Cl)ccc2F)C(=O)C12C(=O)N(CC(=O)O)c1ccc(Cl)cc12` (single isomer, unassigned) [Example 4], 144 nM.
In the case of `CN1C(=O)N(Cc2cc(F)ccc2F)C(=O)C12C(=O)N(CC(=O)O)c1ccc(Cl)cc12` (centres unmarked) [Example 10, [5′-chloro-1-(2,5-difluorobenzyl)-3-methyl-2,2′,5-trioxospiro[imidazolidine-4,3′-indol]-1′(2′H)-yl]acetic acid] it was 498 nM; in that of `CN1C(=O)N(Cc2cc(Cl)ccc2F)C(=O)C12C(=O)N(CC(=O)O)c1ccc(Cl)cc12` (centres unmarked) [Example 1, [5′-chloro-1-(5-chloro-2-fluorobenzyl)-3-methyl-2,2′,5-trioxospiro[imidazolidine-4,3′-indol]-1′(2′H)-yl]acetic acid], 62 nM.
For the compound `CN1C(=O)N(Cc2cn(-c3ccccc3)nc2-c2ccccc2)C(=O)C12C(=O)N(CC(=O)O)c1ccc(Cl)cc12` (centres unmarked) [Example 6, [5′-chloro-1-[(1,3-diphenyl-1H-pyrazol-4-yl)methyl]-3-methyl-2,2′,5-trioxospiro[imidazolidine-4,3′-indol]1′(2′H)-yl]acetic acid], the IC50 amounted to 123 nM.

The values above are taken from US20120115895A1, “TRICYCLIC INDOLE-DERIVED SPIRO DERIVATIVES AS CRTH2 MODULATORS” (Merck Serono S.A., priority 2009, published 2012).
